Test results published in ChEMBL document CHEMBL3734731 (Medchemcomm, 2015).
pEC50, pIC50: −log10 of the molar value. Numbered stars: 1 amine (or outer) side, 2 acyl side, 3 side chain; on linkers, the order of the positions; unused ones are H or OH. Square brackets hold non-standard residues; d marks the D form. Peptide text beside a SMILES is read from it. NMeF = CN[C@@H](Cc1ccccc1)C(=O)O; Aad = N[C@@H](CCCC(=O)O)C(=O)O; Oxalyl = O=C(C(=O)[*:2])[*:1]

Key:
[1] = Agonist activity at cattle NK3 receptor expressed in CHO cells assessed as calcium influx relative to 100 nM senktide; type: cell-based
Neuromedin-K receptor [2] = target: T1, Neuromedin-K receptor (Rattus norvegicus, UniProt P16177); assay: Agonist activity at rat NK3 receptor expressed in CHO cells assessed as calcium influx relative to 100 nM senktide; type: functional, cell-based
T1 sequence (P16177 whole entry): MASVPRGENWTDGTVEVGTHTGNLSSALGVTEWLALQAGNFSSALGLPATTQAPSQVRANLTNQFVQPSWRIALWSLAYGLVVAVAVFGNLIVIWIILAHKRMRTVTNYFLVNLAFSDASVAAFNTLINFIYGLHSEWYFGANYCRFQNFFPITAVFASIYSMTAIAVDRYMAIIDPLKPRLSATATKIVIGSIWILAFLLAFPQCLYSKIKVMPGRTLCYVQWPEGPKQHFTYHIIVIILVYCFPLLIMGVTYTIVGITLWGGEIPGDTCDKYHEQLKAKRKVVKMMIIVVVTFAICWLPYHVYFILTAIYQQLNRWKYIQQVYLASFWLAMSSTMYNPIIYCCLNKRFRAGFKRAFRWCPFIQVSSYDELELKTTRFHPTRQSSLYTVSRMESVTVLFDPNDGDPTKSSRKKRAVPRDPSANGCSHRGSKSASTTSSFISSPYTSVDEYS

Neuromedin-K receptor [3] = target: T2, Neuromedin-K receptor (Homo sapiens, UniProt P29371); assay: Agonist activity at human NK3 receptor expressed in CHO cells assessed as calcium influx relative to 100 nM senktide; type: functional, cell-based
T2 sequence (P29371 whole entry): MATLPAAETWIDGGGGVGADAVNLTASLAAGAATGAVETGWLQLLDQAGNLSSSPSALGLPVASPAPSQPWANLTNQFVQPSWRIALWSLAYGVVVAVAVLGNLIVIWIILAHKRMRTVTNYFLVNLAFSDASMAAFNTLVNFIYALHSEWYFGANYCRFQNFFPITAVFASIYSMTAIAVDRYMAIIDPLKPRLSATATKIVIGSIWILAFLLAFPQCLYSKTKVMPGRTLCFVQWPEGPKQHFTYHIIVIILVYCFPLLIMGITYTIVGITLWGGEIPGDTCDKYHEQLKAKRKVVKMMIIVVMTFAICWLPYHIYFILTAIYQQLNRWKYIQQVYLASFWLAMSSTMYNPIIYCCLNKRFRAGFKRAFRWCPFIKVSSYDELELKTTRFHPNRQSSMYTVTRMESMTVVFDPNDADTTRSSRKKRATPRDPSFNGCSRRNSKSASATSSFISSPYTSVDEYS

[4] = Agonist activity at goat NK3 receptor expressed in CHO cells assessed as calcium influx relative to 100 nM senktide; type: cell-based; settings: Capra hircus
Neuromedin-K receptor [5] = target: T2, Neuromedin-K receptor; assay: Displacement of ([125I]His3-MePhe7)-NKB from NK3 receptor (unknown origin) expressed in CHO cells by scintillation counter; type: cell-based
Neprilysin (NEP 24.11) = Neprilysin (NEP 24.11) (Homo sapiens, UniProt P08473); assay: Stability of compound assessed as NEP 24.11 (unknown origin)-mediated drug degradation after 24 hrs by HPLC analysis; type: ADME; settings: NEP 24.11 (neprilysin) enzyme
Substance-P receptor = Substance-P receptor (Homo sapiens, UniProt P25103); assay: Displacement of [125I]-BH-SP from NK1 receptor (unknown origin) expressed in CHO cells by scintillation counter; type: cell-based
Substance-K receptor = target: T3, Substance-K receptor (Homo sapiens, UniProt P21452); assay: Displacement of [125I]-NKA from NK2 receptor (unknown origin) expressed in CHO cells by scintillation counter; type: cell-based
T3 sequence (P21452 whole entry): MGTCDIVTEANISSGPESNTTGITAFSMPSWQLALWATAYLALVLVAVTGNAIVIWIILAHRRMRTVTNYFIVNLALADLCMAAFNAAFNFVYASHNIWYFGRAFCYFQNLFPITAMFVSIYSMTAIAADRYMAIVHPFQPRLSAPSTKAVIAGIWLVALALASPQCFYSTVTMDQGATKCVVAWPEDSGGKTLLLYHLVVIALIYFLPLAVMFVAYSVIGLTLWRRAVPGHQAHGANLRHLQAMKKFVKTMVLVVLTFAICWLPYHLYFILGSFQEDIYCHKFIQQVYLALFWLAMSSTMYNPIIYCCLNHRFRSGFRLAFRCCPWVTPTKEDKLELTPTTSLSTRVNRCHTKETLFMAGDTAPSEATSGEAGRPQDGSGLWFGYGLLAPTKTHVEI

[6] = Metabolic stability in goat serum by HPLC analysis; type: ADME, Capra hircus
[7] = Induction of periodic burst of multiple-unit activity volleys in OVX goat assessed as time duration of effect at 200 nmol, iv; type: functional, Capra hircus
Serum [8] = assay: Metabolic stability in cattle serum by HPLC analysis; type: ADME, Bos taurus
[9] = Induction of periodic burst of multiple-unit activity volleys in OVX goat assessed as number of ligand-induced multiple-unit activity volleys at 200 nmol, iv; type: functional, Capra hircus
Serum [10] = assay: Metabolic stability in rat serum by HPLC analysis; type: ADME
[11] = target: T4, Neuromedin-K receptor (Homo sapiens) (UniProt P29371); assay: Potency index, ratio of EC50 for […] to EC50 for test compound for agonist activity at human NK3 receptor
T4 sequence (whole entry): T2 sequence (P29371 whole entry)

Sequence of Substance-P receptor (P25103 whole entry): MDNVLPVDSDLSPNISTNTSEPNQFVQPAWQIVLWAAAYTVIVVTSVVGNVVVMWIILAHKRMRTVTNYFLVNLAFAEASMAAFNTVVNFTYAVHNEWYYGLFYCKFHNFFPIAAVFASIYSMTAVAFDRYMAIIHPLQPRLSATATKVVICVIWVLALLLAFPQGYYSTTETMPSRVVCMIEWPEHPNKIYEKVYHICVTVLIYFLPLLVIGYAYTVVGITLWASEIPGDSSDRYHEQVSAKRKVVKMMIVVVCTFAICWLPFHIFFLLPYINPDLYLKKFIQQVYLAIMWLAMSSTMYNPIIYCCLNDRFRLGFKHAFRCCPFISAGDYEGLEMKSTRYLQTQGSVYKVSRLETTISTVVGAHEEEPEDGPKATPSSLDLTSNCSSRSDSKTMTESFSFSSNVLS
Sequence of Neprilysin (NEP 24.11) (P08473 whole entry): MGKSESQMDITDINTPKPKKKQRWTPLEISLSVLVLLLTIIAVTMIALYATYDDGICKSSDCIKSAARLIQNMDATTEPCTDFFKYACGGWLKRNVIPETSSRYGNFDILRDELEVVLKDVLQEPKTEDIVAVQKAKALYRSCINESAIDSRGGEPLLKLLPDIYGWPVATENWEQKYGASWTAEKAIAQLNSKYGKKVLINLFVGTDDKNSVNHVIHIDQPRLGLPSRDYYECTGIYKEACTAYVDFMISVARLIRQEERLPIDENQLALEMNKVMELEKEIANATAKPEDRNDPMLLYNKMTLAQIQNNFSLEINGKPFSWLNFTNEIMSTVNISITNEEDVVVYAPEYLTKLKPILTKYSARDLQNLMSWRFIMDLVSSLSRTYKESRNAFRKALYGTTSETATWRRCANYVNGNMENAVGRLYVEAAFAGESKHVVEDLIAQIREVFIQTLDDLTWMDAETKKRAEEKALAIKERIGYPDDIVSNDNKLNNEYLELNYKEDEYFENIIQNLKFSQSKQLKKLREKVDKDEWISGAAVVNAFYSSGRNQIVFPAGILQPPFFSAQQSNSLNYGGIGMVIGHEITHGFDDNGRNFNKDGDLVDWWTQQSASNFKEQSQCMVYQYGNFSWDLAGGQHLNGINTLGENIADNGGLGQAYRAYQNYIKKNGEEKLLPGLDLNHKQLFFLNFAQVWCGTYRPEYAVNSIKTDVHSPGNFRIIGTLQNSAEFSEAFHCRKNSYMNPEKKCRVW

Row | pEC50 [1] | pEC50 (Neuromedin-K receptor [2]) | pEC50 (Neuromedin-K receptor [3]) | pEC50 [4] | pIC50 (Neuromedin-K receptor [5]) | metabolised at 24 h (Neprilysin (NEP 24.11)) [%] | pIC50 (Substance-P receptor) | pIC50 (Substance-K receptor) | Stability [6] | Stability (Serum [8]) | Stability (Serum [10]) | Ratio EC50 [11] | Structure (SMILES) | Time [7] [min] | Activity [9]
1 | 9.82 | 11.14 | 11.13 | 11.03 | 8.85 | > 70 | < 5.00 | < 5.00 | – | – | – | – | CSCC[C@H](NC(=O)[C@H](CC(C)C)NC(=O)CNC(=O)[C@H](Cc1ccccc1)N(C)C(=O)[C@H](Cc1ccccc1)NC(=O)[C@H](CCCC(=O)O)NC(=O)C(=O)O)C(N)=O (Oxalyl-[Aad]F[NMeF]GLM-NH2) | – | –
2 | 9.21 | – | – | 10.72 | – | – | – | < 5.00 | Stable | Stable | Stable | – | CSCC[C@H](NC(=O)[C@H](CC(C)C)NC(=O)CNC(=O)[C@H](Cc1ccccc1)N(C)C(=O)[C@H](Cc1ccccc1)NC(=O)[C@H](CC(=O)O)NC(=O)CCC(=O)O)C(N)=O [SENKTIDE] | 47.2 | 2.6
3 | 9.77 | 10.89 | 11.04 | 10.92 | 9.37 | > 70 | < 5.00 | < 5.00 | Stable | Stable | Stable | 7 | CSCC[C@H](NC(=O)[C@H](CC(C)C)NC(=O)CNC(=O)[C@H](Cc1ccccc1)N(C)C(=O)[C@H](Cc1ccccc1)NC(=O)[C@H](CCC(=O)O)NC(=O)C(=O)O)C(N)=O | – | –
4 | 9.82 | 11.00 | 10.85 | 11.03 | 9.29 | – | < 5.00 | < 5.00 | Stable | Stable | Stable | 7 | CSCC[C@H](NC(=O)[C@H](CC(C)C)NC(=O)CNC(=O)[C@H](Cc1ccccc1)N(C)C(=O)[C@H](Cc1ccccc1)NC(=O)[C@@H](CCC(=O)O)NC(=O)C(=O)O)C(N)=O | 50.4 | 2.7
